Reference: PMC13266999, “Designing Antibiotics with Inherent Resistance to Efflux as a Strategy to Revive Discovery against Multidrug-Resistant Pathogens” (Journal of Medicinal Chemistry, 2026)
Converted amounts (≈) assume the structure as drawn. Read-outs that look alike come from different tables or passages of the source.

Experiments:
E. coli [1] = assay: MIC (microbroth dilution); type: cell-based; conditions: Escherichia coli
Description: (§1) All bacteria were maintained on tryptic soy agar (TSA), except Streptococcus spp., which were maintained on Columbia agar plates containing 5% horse blood. […] Bacteria were grown to stationary phase in liquid culture overnight, with shaking at 200 rpm, before being back diluted to the relevant starting concentration for each assay below. MICs were measured by the microbroth dilution method. […] Absorbance at OD600 was read on a CLARIOstar spectrophotometer (BMG Labtech) and the MIC was defined as the minimum concentration of compound where no visible growth was detected. […] MICs were also performed in the presence of the outer membrane permeator, polymyxin b nonapeptide (PMBN) following the same MIC method but with the following variation. The 2-fold dilution series of compound was prepared as above, then 50 μL of PMBN at a final concentration of 30 μg/mL was added to relevant wells, while 50 μL/well of blank media was added to the remaining wells. Bacteria were then added at 50 μL/well for a starting concentration as above. […] The MICs were read and defined as above. All animal procedures were performed by the contract research organization Pharmacology Discovery Services Taiwan in accordance with the Guide for the Care and Use of Laboratory Animals. The procedures were approved by the Institutional Ethics Committee of Pharmacology Discovery Services Taiwan, Ltd. (approval no. AB127662), in compliance with animal welfare legislation in Taiwan.

S. aureus = assay: Mutation frequency and agar MIC; type: cell-based
Description: (§2) Mutation frequencies were performed on solid media at supra-inhibitory concentrations. First, the agar MIC was performed to account for any issues in solubility of compounds in solid media. Agar plates were prepared with 2-fold dilutions of compound.
(§3) For the mutation frequency assay, bacteria from an overnight culture were grown to mid exponential phase in liquid broth, then 100 μL was spread onto an agar plate containing compound at concentrations above the agar MIC. A Miles-Misra was also conducted on an antibiotic-free agar plate to determine the CFU/mL of the starting population. […] The mutation frequency was calculated by dividing the number of colonies on supra inhibitory con-centration plates by the starting population.

A. baumannii = assay: Mutation frequency and agar MIC; type: cell-based; conditions: A118
Description: as §2, §3

E. coli [2] = assay: Mutation frequency and agar MIC; type: cell-based
Description: as §2, §3

K. pneumoniae = assay: MIC (microbroth dilution); type: cell-based, Klebsiella pneumoniae
Description: as §1

H2 (h) = biological target: T1, H2 (h) (Homo sapiens, UniProt P25021); assay: SafetyScreen44; conditions: antagonist radioligand, specific binding, 1.0E-05 M
T1 construct: purchased Eurofins (SafetyScreen44)
Description: (§4) Off-target pharmacology was evaluated using the Eurofins SafetyScreen44 in vitro panel. […] Binding assays were performed using radioligand displacement, and enzyme or uptake assays measured inhibition of control activity using validated detection methods (scintillation counting, fluorimetry or photometry). Responses were expressed as percent inhibition of control binding or activity. Based on Eurofins interpretation guidelines, effects ≥50% were considered significant, effects between 25% and 50% weak to moderate, and effects <25% were not considered biologically relevant.

5-HT2B (h) = biological target: T2, 5-HT2B (h) (Homo sapiens, UniProt P41595); assay: SafetyScreen44; conditions: agonist radioligand, specific binding, 1.0E-05 M
T2 construct: purchased Eurofins (SafetyScreen44)
Description: as §4

5-HT3 (h) = biological target: T3, 5-HT3 (h) (Homo sapiens, UniProt P46098); assay: SafetyScreen44; conditions: antagonist radioligand, specific binding, 1.0E-05 M
T3 construct: purchased Eurofins (SafetyScreen44)
Description: as §4

mu (MOP) (h) = biological target: T4, mu (MOP) (h) (Homo sapiens, UniProt P35372); assay: SafetyScreen44; conditions: agonist radioligand, specific binding, 1.0E-05 M
T4 construct: purchased Eurofins (SafetyScreen44)
Description: as §4

alpha 1A (h) = biological target: T5, alpha 1A (h) (Homo sapiens, UniProt P35348); assay: SafetyScreen44; conditions: antagonist radioligand, specific binding, 1.0E-05 M
T5 construct: purchased Eurofins (SafetyScreen44)
Description: as §4

NMDA = assay: SafetyScreen44; conditions: antagonist radioligand, specific binding, 1.0E-05 M
Description: as §4

Pharmacokinetics = conditions: male, ICR (CD-1), mouse; for half-life: in vivo
Description: Pharmacokinetic studies were performed in male ICR (CD-1) mice obtained from Charles River, UK. […] Blood samples were collected from the caudal vein into anticoagulant-treated capillaries at predetermined time points up to 8 h, with terminal cardiac puncture at 8 h. Plasma samples were stored at −80 °C until analysis. […] A compound-specific LC-MS/MS method was developed for each test article using matrix-matched calibrators following protein precipitation of samples.

S. agalactiae = assay: MIC (microbroth dilution); type: cell-based, Streptococcus agalactiae; conditions: for MIC: Streptococcus agalactiae
Description: All bacteria were maintained on tryptic soy agar (TSA), except Streptococcus spp., which were maintained on Columbia agar plates containing 5% horse blood. All bacterial assays were carried out in tryptic soy broth (TSB), except for Streptococcus spp. which were grown in cation-adjusted Mueller Hinton broth containing 2.5% lysed horse blood. Bacteria were grown to stationary phase in liquid culture overnight, with shaking at 200 rpm, before being back diluted to the relevant starting concentration for each assay below. MICs were measured by the microbroth dilution method. […] Absorbance at OD600 was read on a CLARIOstar spectrophotometer (BMG Labtech) and the MIC was defined as the minimum concentration of compound where no visible growth was detected. The compounds were prepared as a DMSO stock and equivalent concentrations of DMSO had no effect on bacterial growth. MICs were also performed in the presence of the outer membrane permeator, polymyxin b nonapeptide (PMBN) following the same MIC method but with the following variation. The 2-fold dilution series of compound was prepared as above, then 50 μL of PMBN at a final concentration of 30 μg/mL was added to relevant wells, while 50 μL/well of blank media was added to the remaining wells. Bacteria were then added at 50 μL/well for a starting concentration as above. Thirty μg/mL of PMBN had no effect on bacterial growth. The MICs were read and defined as above. All animal procedures were performed by the contract research organization Pharmacology Discovery Services Taiwan in accordance with the Guide for the Care and Use of Laboratory Animals. The procedures were approved by the Institutional Ethics Committee of Pharmacology Discovery Services Taiwan, Ltd. (approval no. AB127662), in compliance with animal welfare legislation in Taiwan.

[3] = Klebsiella pneumoniae, M6, read-out: MIC
[4] = Klebsiella pneumoniae, NCTC13368, NCTC 13368, read-out: MIC

T3 sequence (P46098 24-478): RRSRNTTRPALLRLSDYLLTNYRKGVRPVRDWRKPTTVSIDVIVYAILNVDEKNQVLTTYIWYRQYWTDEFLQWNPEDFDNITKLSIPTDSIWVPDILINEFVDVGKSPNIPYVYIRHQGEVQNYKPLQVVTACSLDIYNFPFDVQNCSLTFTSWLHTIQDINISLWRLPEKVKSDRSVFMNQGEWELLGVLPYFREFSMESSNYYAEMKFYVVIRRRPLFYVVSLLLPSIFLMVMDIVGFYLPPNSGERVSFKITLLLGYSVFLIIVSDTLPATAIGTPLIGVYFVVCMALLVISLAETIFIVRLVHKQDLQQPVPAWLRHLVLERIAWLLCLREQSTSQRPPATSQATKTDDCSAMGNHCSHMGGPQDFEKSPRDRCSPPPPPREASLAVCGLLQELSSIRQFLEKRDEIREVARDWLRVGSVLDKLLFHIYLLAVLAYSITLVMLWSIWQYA
T2 sequence (P41595 whole entry): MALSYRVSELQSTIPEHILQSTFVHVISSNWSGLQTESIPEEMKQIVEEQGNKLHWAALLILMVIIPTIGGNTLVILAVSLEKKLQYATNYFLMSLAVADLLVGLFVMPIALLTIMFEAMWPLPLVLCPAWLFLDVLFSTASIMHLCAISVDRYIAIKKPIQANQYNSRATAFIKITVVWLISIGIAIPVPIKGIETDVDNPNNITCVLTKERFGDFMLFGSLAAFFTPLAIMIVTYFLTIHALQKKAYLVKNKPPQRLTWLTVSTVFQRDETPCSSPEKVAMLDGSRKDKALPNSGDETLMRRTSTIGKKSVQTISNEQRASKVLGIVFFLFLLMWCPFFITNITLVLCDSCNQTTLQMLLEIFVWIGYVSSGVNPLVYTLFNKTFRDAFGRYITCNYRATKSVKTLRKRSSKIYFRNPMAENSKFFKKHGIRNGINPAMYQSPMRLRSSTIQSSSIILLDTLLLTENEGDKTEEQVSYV
T5 sequence (P35348 whole entry): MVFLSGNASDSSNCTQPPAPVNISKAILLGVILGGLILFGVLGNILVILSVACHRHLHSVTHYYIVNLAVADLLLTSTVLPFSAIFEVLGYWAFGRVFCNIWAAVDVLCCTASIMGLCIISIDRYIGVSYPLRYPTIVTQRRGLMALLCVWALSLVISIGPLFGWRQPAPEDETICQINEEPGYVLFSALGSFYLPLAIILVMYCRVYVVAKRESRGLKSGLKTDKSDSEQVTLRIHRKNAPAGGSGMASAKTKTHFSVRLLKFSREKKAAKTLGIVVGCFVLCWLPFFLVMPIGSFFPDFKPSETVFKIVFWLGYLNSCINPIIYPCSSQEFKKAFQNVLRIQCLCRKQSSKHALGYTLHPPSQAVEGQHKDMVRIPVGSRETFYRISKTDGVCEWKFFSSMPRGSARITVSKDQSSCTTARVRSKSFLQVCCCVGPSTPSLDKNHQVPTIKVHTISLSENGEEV
T1 sequence (P25021 whole entry): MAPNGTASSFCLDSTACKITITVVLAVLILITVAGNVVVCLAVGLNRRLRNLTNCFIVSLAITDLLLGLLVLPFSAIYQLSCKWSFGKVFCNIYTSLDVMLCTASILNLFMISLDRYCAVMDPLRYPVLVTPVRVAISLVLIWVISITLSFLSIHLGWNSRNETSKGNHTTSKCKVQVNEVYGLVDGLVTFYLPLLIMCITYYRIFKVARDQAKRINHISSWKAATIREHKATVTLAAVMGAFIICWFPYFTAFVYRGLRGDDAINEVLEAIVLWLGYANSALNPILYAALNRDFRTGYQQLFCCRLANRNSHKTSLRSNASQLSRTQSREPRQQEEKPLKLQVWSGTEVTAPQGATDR
T4 sequence (P35372 whole entry): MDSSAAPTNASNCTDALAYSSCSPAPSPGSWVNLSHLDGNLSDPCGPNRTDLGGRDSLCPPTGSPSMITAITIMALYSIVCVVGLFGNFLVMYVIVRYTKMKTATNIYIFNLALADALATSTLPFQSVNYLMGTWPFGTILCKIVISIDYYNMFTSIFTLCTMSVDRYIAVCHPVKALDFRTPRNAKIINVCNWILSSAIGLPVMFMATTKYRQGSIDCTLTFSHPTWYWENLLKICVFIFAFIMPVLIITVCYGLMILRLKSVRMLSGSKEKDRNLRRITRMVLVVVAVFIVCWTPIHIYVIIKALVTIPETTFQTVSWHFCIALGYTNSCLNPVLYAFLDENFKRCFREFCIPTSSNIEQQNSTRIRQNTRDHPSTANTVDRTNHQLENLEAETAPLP

| Compound | MIC (E. coli [1]; 319238/UR) [mg/L] | MIC (E. coli [1]; LEC006) [mg/L] | MIC (E. coli [1]; LEC007) [mg/L] | MIC (E. coli [1]; LEC077) [mg/L] | MIC (E. coli [1]; LEC081) [mg/L] | MIC (E. coli [1]; NCTC10418, NCTC 10418) [mg/L] | MIC (E. coli [1]; NCTC11954, NCTC 11954) [mg/L] | MIC (E. coli [1]; NCTC12241, NCTC 12241) [mg/L] | MIC (E. coli [1]; NCTC12923, NCTC 12923) [mg/L] | Agar MIC (S. aureus; ATCC 9144) [mg/L] | Agar MIC (S. aureus; NCTC 13616) [mg/L] | Agar MIC (A. baumannii) [mg/L] | Agar MIC (E. coli [2]; NCTC 12241) [mg/L] | Agar MIC (E. coli [2]; NCTC 12923) [mg/L] | MIC (K. pneumoniae; [3]) [mg/L] | MIC (K. pneumoniae; [4]) [mg/L] | inhibition at 10 µM (alpha 1A (h)) [%] | % Inhibition (NMDA) [%] | half-life (Pharmacokinetics; po, 20 mg/kg) [h] | AUC(0-inf) (Pharmacokinetics; plasma, iv, 5 mg/kg) [µg·h/mL] | further results |
| --- | --- | --- | --- | --- | --- | --- | --- | --- | --- | --- | --- | --- | --- | --- | --- | --- | --- | --- | --- | --- | --- |
| C[C@H]1COc2c(N3CC[C@@H](Nc4ncccn4)C3)c(F)cc3c(=O)c(C(=O)O)cn1c23 [Compound 46, (S)-9-Fluoro-3-methyl-7-oxo-10-((R)-3-(pyrimidin-2-ylamino)pyrrolidin-1-yl)-2,3-dihydro-7H-[1,4]oxazino[2,3,4-ij]quinoline-6-carboxylic acid] | 16 (≈ 37.6 µM) | 0.125 (≈ 0.294 µM) | 0.125 (≈ 0.294 µM) | 4 (≈ 9.4 µM) | 2 (≈ 4.7 µM) | ≤ 0.06 | 0.125 (≈ 0.294 µM) | 0.06 (≈ 0.141 µM) | 0.25 to 0.5 (≈ 0.588 to 1.18 µM) | 0.008 | 0.5 | 0.03 | 0.03 | 0.12 | 1 to 2 (≈ 2.35 to 4.7 µM) | 8 (≈ 18.8 µM) | 11.5 | 12.6124 | 5.1 | 15.7 | MIC (K. pneumoniae; Klebsiella pneumoniae, TW3, read-out: MIC): 1 mg/L (≈ 2.35 µM); % Inhibition (H2 (h)): -40.1709%; % Inhibition (5-HT2B (h)): 5.374%; % Inhibition (5-HT3 (h)): -4.708%; % Inhibition (mu (MOP) (h)): 6.535%; bioavailability (Pharmacokinetics; plasma, po, 20 mg/kg): 49.3%; MIC (S. agalactiae; 6175): 0.125 mg/L (≈ 0.294 µM); MIC (S. agalactiae; 8017, read-out: MIC): 0.5 mg/L (≈ 1.18 µM); MIC (S. agalactiae; 8181): 0.125 mg/L (≈ 0.294 µM); MIC (S. agalactiae; 8183): 0.125 mg/L (≈ 0.294 µM); MIC (S. agalactiae; 10069, read-out: MIC): ≤ 0.03 mg/L; MIC (S. agalactiae; 10182): 0.125 mg/L (≈ 0.294 µM); MIC (S. agalactiae; 11080, read-out: MIC): 0.25 mg/L (≈ 0.588 µM); MIC (S. agalactiae; 83190): 0.125 mg/L (≈ 0.294 µM); MIC (S. agalactiae; 83740): 0.125 mg/L (≈ 0.294 µM); MIC (S. agalactiae; 84115): 0.125 to 0.5 mg/L (≈ 0.294 to 1.18 µM); MIC range (S. agalactiae; n = 10): 0.06 to 0.5 mg/L |
| Cc1cc(C)nc(N[C@@H]2CCN(c3c(F)cc4c(=O)c(C(=O)O)cn5c4c3OC[C@@H]5C)C2)n1 [Compound 50, (S)-10-((R)-3-((4,6-Dimethylpyrimidin-2-yl)amino)pyrrolidin-1-yl)-9-fluoro-3-methyl-7-oxo-2,3-dihydro-7H-[1,4]oxazino[2,3,4-ij]quinoline-6-carboxylic acid] | 32 (≈ 70.6 µM) | 0.5 (≈ 1.1 µM) | 0.25 (≈ 0.551 µM) | 8 (≈ 17.6 µM) | 8 (≈ 17.6 µM) | 0.125 (≈ 0.276 µM) | 0.25 (≈ 0.551 µM) | 0.25 (≈ 0.551 µM) | 1 (≈ 2.21 µM) | 0.03 | 0.5 | 0.25 | 0.25 |  | 2 (≈ 4.41 µM) | 16 (≈ 35.3 µM) | 6.96 | -5.137 |  | 33.1 | inhibition at 10 µM (H2 (h)): -9.63%; inhibition at 10 µM (5-HT2B (h)): 9.78%; inhibition at 10 µM (5-HT3 (h)): 7.02%; inhibition at 10 µM (mu (MOP) (h)): 0.499%; clearance (Pharmacokinetics; plasma, iv, 5 mg/kg): 0.151 L/h/kg; Cmax (Pharmacokinetics; plasma, po, 20 mg/kg): 14.5 µg/mL; Tmax (Pharmacokinetics; plasma, po, 20 mg/kg): 0.5 h; bioavailability (Pharmacokinetics; plasma, po, 20 mg/kg): 83%; MIC (S. agalactiae; 6175, read-out: MIC): 0.06 mg/L (≈ 0.132 µM); MIC (S. agalactiae; 8017, read-out: MIC): 0.25 mg/L (≈ 0.551 µM); MIC (S. agalactiae; 8181, read-out: MIC): 0.06 mg/L (≈ 0.132 µM); MIC (S. agalactiae; 8183): 0.125 mg/L (≈ 0.276 µM); MIC (S. agalactiae; 10069, read-out: MIC): ≤ 0.03 mg/L; MIC (S. agalactiae; 10182, read-out: MIC): 0.06 mg/L (≈ 0.132 µM); MIC (S. agalactiae; 11080): 0.125 mg/L (≈ 0.276 µM); MIC (S. agalactiae; 83190, read-out: MIC): 0.06 mg/L (≈ 0.132 µM); MIC (S. agalactiae; 83740, read-out: MIC): 0.06 mg/L (≈ 0.132 µM); MIC (S. agalactiae; 84115): 0.125 mg/L (≈ 0.276 µM); MIC (S. agalactiae; ATCC12386, ATCC 12386): 0.25 mg/L (≈ 0.551 µM); MIC (S. agalactiae; n = 10, read-out: modal MIC): 0.06 mg/L (≈ 0.132 µM) |
| C[C@H]1COc2c(N3CCN(C)CC3)c(F)cc3c(=O)c(C(=O)O)cn1c23 [Levofloxacin, (S)-9-Fluoro-3-methyl-10-(4-methylpiperazin-1-yl)-7-oxo-2,3-dihydro-7H-[1,4]oxazino[2,3,4-ij]quinoline-6-carboxylic acid, reference compound] | 8 (≈ 22.1 µM) | ≤ 0.06 | ≤ 0.06 | 0.5 (≈ 1.38 µM) | 0.5 (≈ 1.38 µM) | ≤ 0.06 | ≤ 0.06 | ≤ 0.06 | ≤ 0.016 | 0.12 | 4 | 0.06 | 0.03 | 0.0078 |  | 2 (≈ 5.53 µM) |  |  | 5.7 | 9.17 | MIC (K. pneumoniae; Klebsiella pneumoniae): 0.125 mg/L (≈ 0.346 µM); MIC (K. pneumoniae; TW3): 0.125 mg/L (≈ 0.346 µM) |
